Experimental findings from US20050260253A1, “Transmucosal gel formulations” (Recordati Ireland Limited, priority 2004, published 2005) are described below.

The nature of series [1]: Plasma concentration of Rec 15/2615 by LC/MS-MS after vaginal application or submucosal injection. The format is in vivo, rabbit. To be noted: for concentration at 15 min: female, rabbit, plasma, read-out: Mean plasma levels of Rec 15/2615. How it is done: A flexible 18 gauge catheter was attached to a syringe loaded with hydrogel formulation. The catheter was filled until the formulation reached 3-5 mm from the open end. The catheter was placed 2.5 cm into the vagina and secured to the labia with suture to prevent migration. The syringe was placed on the heating pad to keep the formulation warm. Following control nerve stimulations, 1 ml of formulation was infused into the vagina. Pelvic nerve stimulation was repeated 15 min and 30 min afterwards. Nerve stimulation at the 15 min time point coincided with the time of maximal serum concentration.
Rec 15/2615 hydrochloride (1 mg/ml) was dissolved in 10% (v/v) N,N-dimethylformamide. Prior to the application of the laser oximeter probe, Rec 15/2615 hydrochloride solution was loaded into two 23 gauge infusion sets connected to 1 ml syringes (50 μl per infusion set). Needles were inserted into the distal vaginal wall, just below the mucosal surface, at the 3 and 9 o'clock positions. Following control nerve stimulations, drug was infused into the vagina. Pelvic nerve stimulation was repeated 15 min and 30 min after drug administration.
Blood samples (˜2 ml) were obtained from the carotid artery prior to formulation administration and then […] after formulation administration. Samples were collected in heparinized syringes and transferred into pre-cooled polypropylene tubes on ice. Plasma was obtained by centrifugation at 1200×g for 2 min at 4° C. and stored at −20° C.
0.1 mL of rabbit plasma was transferred to an Eppendorf tube and 10 μL of internal standard methanolic solution (0.2 μg/mL of 4-amino-6,7-dimethoxy-2-[4-(2-isopropyl-5-methylphenoxy acetyl)-1-piperazinyl]quinazoline (Rec 15/2693) in methanol) were added. 1 mL of acetonitrile was added to each sample and samples were shaken on a multimixer shaker for 1 min. Protein was allowed to precipitate and samples were then centrifuged at 4° C. for 10 min at 2700 g. The organic layer was transferred to a new glass tube and evaporated at 45° C. under a stream of nitrogen. The residue was dissolved in 250 μL of buffer solution containing methanol/10 mM ammonium formate, pH 3.5 (40:60; v/v). Samples were mixed 1 min using a vortex mixer and clarified by centrifugation (5 min×2700 g). The clarified solution was transferred into an autosampler vial. Aliquots of 20 μL were analyzed by LC/MS-MS.

In series [2] the test system is genital blood flow in female anesthetized rabbits. Nature of the series: Genital tissue oxyhemoglobin (genital engorgement) by laser oximetry, basal and after pelvic nerve stimulation, in vivo model of female sexual arousal. Details: species or system rabbit (New Zealand White). To be noted: for nerve-induced increase in genital tissue OxyHb: topical vaginal formulation; for mean AUC of genital tissue OxyHb compared to vehicle-treated control group: 15-35 min; for response to pelvic nerve stimulation (genital tissue oxyhemoglobin) vs control stimulations: vaginal submucosal injection 100 μg. The method, then: The effect of Rec 15/2615 formulation on genital blood flow, a physiologic parameters of female sexual arousal, was measured in both the basal, non-aroused state and following stimulation of the pelvic nerve, which mimics the sexually aroused state, in an established in vivo animal model of female sexual arousal (see, e.g., Munarriz, R., et al., 2003, A review of the physiology and pharmacology of peripheral (vaginal and clitoral) female genital arousal in the animal model, J. Urol. 170(2 Pt 2):S40-44; Min, K., et al., 2000, Sildenafil augments pelvic nerve-mediated female genital sexual arousal in the anesthetized rabbit. Intl. J. Impot. Res. 12(Suppl)3:S32-39; Tarcan, T., et al., 2000, Systemic administration of apomorphine improves the hemodynamic mechanism of clitoral and vaginal engorgement in the rabbit. Int J Impot Res. 12:235-240; Park, K., et al., 1997, Vasculogenic female sexual dysfunction: the hemodynamic basis for vaginal engorgement insufficiency and clitoral erectile insufficiency. Intl. J. Impot. Res. 9:27-37). Each of the foregoing references is incorporated herein by reference in its entirety.
(§1) Female New Zealand White rabbits (4.5 to 5 kg) were anesthetized by intramuscular injection of ketamine (35 mg/kg) and xylazine (5 mg/kg) and secured in the supine position. Anesthesia was maintained as needed with additional intramuscular xylazine (5 mg/ml). A midline neck incision (3 cm) was fashioned to access the carotid artery. A 20-gauge angiocatheter was inserted into the carotid artery for systemic blood pressure measurements. […] Body temperature was maintained with an electric heat pad. Following subcutaneous lidocaine injection, the perivesical space was exposed through a mid-line abdominal incision. The pelvic nerve was identified and carefully dissected under the perivesical fat on the postero-lateral aspect of the upper vagina. Bladder contents were aspirated through the bladder wall with an 18 gauge needle and 50 ml syringe. Under direct vision, a bipolar platinum wire electrode was hooked onto the pelvic nerve without cutting the nerve. Unilateral pelvic nerve stimulation was accomplished with a Grass SD9 stimulator set at normal polarity and repeat mode to generate a 30 second train of square waves with 10 V pulse amplitude, 0.8 msec pulse duration and 2-6 Hz frequency. A laser Doppler flowmetry surface probe (model BLF21D, Transonic System Inc, Ithaca, N.Y., USA) was placed into the rabbit vagina and used to confirm unilateral pelvic nerve stimulation. The interval between stimulations was 10-15 min to prevent nerve exhaustion.
Tissue hemoglobin concentration was determined by a near infrared optical spectroscopy technique using a dual channel laser oximeter (model 96208; ISS, Inc., Champaign, Ill.). This technique utilizes a continuous wave optical spectrometer with a fiber optic array probe consisting of one detector and 8 light sources. The sources emit light in the near infrared spectrum (700-900 nm) which can penetrate a targeted volume of tissue (˜530 mm^3) to an average depth of 7.2 mm beneath the optical fibers. By detecting scattered light, absorption by oxyhemoglobin (OHb) and deoxyhemoglobin can be quantified and total hemoglobin can be calculated. Laser oximetry can thus be utilized to assess local tissue hemodynamics in a non-invasive and continuous fashion. The skin around the labia was carefully shaved to ensure good contact with the optical fibers. The probe (2 cm in length) was positioned longitudinally on the skin overlying the clitoris, labia and vagina, such that the detector fiber was positioned just below the pubic arch. The probe assembly was secured in place by a metal stand. The area over the probe was covered with a black cloth to prevent any interference from natural or artificial ambient light sources.
A flexible 18 gauge catheter was attached to a syringe loaded with hydrogel formulation. The catheter was filled until the formulation reached 3-5 mm from the open end. […]

The test system of series [3] is systemic blood pressure. Nature of the series: Systemic blood pressure via carotid artery catheter in anesthetized rabbits. It counts as in vivo, rabbit (New Zealand White). The method, then: as §1, with “The interval between stimulations was 10-15 min to prevent nerve exhaustion.” left out

Molecules are shown by their SMILES. Where two headings read alike, the source gives them in different places.

On to `COc1cc2nc(N3CCN(C(=O)COc4c(OC)cccc4C(C)C)CC3)nc(N)c2cc1OC` [Rec 15/2615, 4-amino-6,7-dimethoxy-2-{4-[(2-isopropyl-6-methoxyphenoxy)acetyl]-1-piperazinyl}quinazoline], for which the concentration at 15 min came out at 0.0263 µg/mL in series [1] (other: submucosal injection into the distal vaginal wall, 15 min after direct submucosal injection of 0.1 mg); 0.0106 µg/mL in series [1] (other: vaginal application, 15 min after vaginal application of 1 ml of formulation 0.075%); 0.0452 µg/mL in series [1] (other: vaginal application, 15 min after vaginal application of 1 ml of formulation 0.15%); 0.0725 µg/mL in series [1] (other: vaginal application, 15 min after vaginal application of 1 ml of formulation 0.3%). Further, the “plasma levels with increasing concentration of active compound in the formulation” value in series [1] (vaginal application, 0.075-0.3%) is listed as “dose-dependent increase”. For the same molecule, the results for the “nerve-induced increase in genital tissue OxyHb” value in series [2] (pelvic nerve stimulation at 15 min) and in series [2] (pelvic nerve stimulation at 30 min) were “significant increase” and “remained high”, respectively. In series [2] (topical vaginal, 0-35 min, dose-dependent trend), the “AUC of genital tissue OxyHb relative to vehicle” value is “higher AUC values relative to vehicle”. Further, the “mean AUC of genital tissue OxyHb compared to vehicle-treated control group” value is reported as “statistically significant difference” in series [2] (topical vaginal, 1 ml formulation 0.15%) and “statistically significant difference” in series [2] (topical vaginal, 1 ml formulation 0.3%). Besides, the “mean area-under-the-curve (AUC) of genital tissue OxyHb compared to vehicle” value in series [2] (topical vaginal, 1 ml formulation, 0-15 min, all concentrations except 0.15%) is recorded as “similar”. In addition, the “duration of sustained genital engorgement following formulation administration” value in series [2] (topical vaginal, duration of the experimental protocol) was “up to 45 minutes”. For the same molecule, the “response to pelvic nerve stimulation (genital tissue oxyhemoglobin) vs control stimulations” value is given as “significantly enhanced response” in series [2] (15 min after injection) and “did not reach statistical significance” in series [2] (30 min after injection). Moreover, the “effect on blood pressure” value in series [3] (topical vaginal administration, 0.075-0.3% formulations) is on record as “no significant effect”. For the same molecule, the “effect on systemic blood pressure” value in series [3] (vaginal submucosal injection (data not shown)) is listed as “did not affect systemic blood pressure”.
As to `COc1cc2nc(N3CCN(C(=O)COc4c(OC)cccc4C(C)C)CC3)nc(N)c2cc1OC.Cl.Cl` [Rec 15/2615 hydrochloride], in series [2] (formulations 0.075% and 0.15% vs submucosal injection, considering plasma levels at 15 min), the “effect on genital tissue oxyhemoglobin administered as a gel compared with direct submucosal injection” value is on record as “higher than that obtained by direct injection”.
